# In patent US7238716B2, “Alkanoic acid derivatives process for their production and use thereof” (Takeda Pharmaceuticals Company Limited, priority 2000, dated 2007):
# Read-outs that look alike come from different tables or passages of the source.
# Experiments:
# [1] = system: KKAY mice; experiment: Hypoglycemic and hypolipidemic actions in mice (Test Example 1); type: in vivo; conditions: Mus musculus, po, 96 h, four days; for inhibition in vivo at 0.005 %: 0.005% in powdery diet; for inhibition in vivo at 0.01 %: 0.01% in powdery diet
# Description: Test compounds were mixed in a powdery diet (CE-2, Japan Clea) at the concentration of 0.01% (compounds of Examples 7, 26, 29, 32) or 0.005% (compounds of Examples 1, 11, 15, 18, 24, 36, 37, 41, 48, 50, 51, 52, 58, 62, 79, 83, 88, 90, 91, 92, 93, 97, 107, 110, 115, 119, 122, 125, 129 and 130), and freely given to KKAY mice (11 to 12 weeks old, 5 mice in a group), a model of type 2 diabetes mellitus, for four days. During this period, water was given freely. Blood was sampled from orbital venous plexus, and glucose and triglyceride levels in plasma separated from blood were determined enzymatically using L type Wako Glu2 (Wako Pure Chemical Industries, Ltd.) or L type Wako TG.H (Wako Pure Chemical Industries, Ltd.), respectively.
# In the Table, “hypoglycemic action (%)” means a percent reduction (%) of the glucose level in the test compound administration group when that of the test compound non-administration group is taken as 100%. In addition, the “hypolipidemic action (%)” means a percent reduction (%) of the triglyceride level in the test compound administration group when that of the test compound non-administration group is taken as 100%.
# [2] = target: T1, PPARγ-RXRα heterodimer (Homo sapiens, UniProt P37231); experiment: PPARγ-RXRα heterodimer ligand activity, luciferase reporter in PPARγ:RXRα:4ERPP/CHO-K1 cells (Test Example 3); type: cell-based; conditions: concentration for 50% of the maximum fold induction of luciferase activity; 48 hours, CHO-K1 cells
# T1 construct: expressed in transfected cells; host or cells: CHO-K1
# T1 sequence (P37231 1-477 isoform P37231-2): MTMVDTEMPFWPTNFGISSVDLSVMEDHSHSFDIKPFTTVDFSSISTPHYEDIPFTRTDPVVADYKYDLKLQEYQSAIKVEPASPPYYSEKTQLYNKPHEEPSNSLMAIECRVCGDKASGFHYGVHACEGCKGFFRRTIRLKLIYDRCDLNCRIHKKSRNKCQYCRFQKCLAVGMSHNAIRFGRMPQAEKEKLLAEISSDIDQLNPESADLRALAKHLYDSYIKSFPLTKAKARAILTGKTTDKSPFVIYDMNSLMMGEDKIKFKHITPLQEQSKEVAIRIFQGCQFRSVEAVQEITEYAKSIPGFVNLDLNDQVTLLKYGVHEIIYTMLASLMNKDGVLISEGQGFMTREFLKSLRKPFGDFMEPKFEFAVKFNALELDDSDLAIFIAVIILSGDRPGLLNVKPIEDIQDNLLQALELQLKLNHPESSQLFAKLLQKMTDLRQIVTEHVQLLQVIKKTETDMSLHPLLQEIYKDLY
# T1 sequence (P19793 1-462 partner): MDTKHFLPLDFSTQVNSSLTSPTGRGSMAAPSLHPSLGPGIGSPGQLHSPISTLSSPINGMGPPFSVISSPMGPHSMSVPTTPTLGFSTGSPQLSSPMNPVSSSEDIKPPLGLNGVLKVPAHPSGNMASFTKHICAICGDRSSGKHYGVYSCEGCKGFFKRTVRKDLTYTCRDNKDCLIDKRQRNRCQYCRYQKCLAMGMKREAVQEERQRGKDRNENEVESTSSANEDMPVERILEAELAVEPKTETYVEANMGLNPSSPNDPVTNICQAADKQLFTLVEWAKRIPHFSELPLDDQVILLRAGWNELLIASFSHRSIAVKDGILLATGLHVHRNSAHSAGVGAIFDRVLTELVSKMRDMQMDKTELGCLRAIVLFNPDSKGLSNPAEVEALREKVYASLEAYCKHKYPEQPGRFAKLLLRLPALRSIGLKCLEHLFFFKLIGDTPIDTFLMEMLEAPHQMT
# Procedure: A PPARγ:RXRα:4ERPP/CHO-K1 cells obtained in Reference Example 5 described later were cultured in HAM F12 medium (produced by NISSUI SEIYAKU) containing 10% Fetal bovine serum (produced by Life Technologies, Inc., USA) and then inoculated to a 96-well white plate (produced by Corning Costar Corporation, USA) at the density of 2×10^4 cells/well, and cultured in a CO2 gas incubator at 37° C. overnight.
# After washing the 96 well white plate with PBS (Phosphate-buffered saline), 90 μl of HAM F12 medium containing 0.1% fatty acid-free bovine serum albumin (BSA) and 10 μl of test compound were added, which was cultured in a CO2 gas incubator at 37° C. for 48 hours. After removing the medium, 40 μl of PIKKAGENE 7.5 (produced by Wako Pure Chemical Industries, Ltd.) was added. After stirring, the luciferase activity was determined using Lumistar (produced by BMG Labtechnologies GmbH, Germany).
# A fold induction was calculated based on the luciferase activity of each test compound by taking the luciferase activity in the test compound non administration group as 1. The values of the test compound, concentration and the fold induction were analyzed using PRISM 2.01 (produced by GraphPad Software Inc. USA) to calculate the EC50 values, the effective concentration of a test compound for 50% of the maximum fold induction.
# After a CHO-K1 cell cultured in a 750 ml tissue culture flask (produced by Corning-Costar Corporation, USA) containing HAM F12 medium (produced by NISSUI SEIYAKU) supplemented with 10% Fetal Bovine Serum (produced by Life Technologies, Inc., USA) was scraped by treating with 0.5 g/L trypsin-0.2 g/L EDTA (ethylenediaminetetraacetic acid) (produced by Life Technologies, Inc., USA), the cell was washed with PBS (phosphate buffered saline) (produced by Life Technologies, Inc., USA), centrifuged (1000 rpm, 5 minutes), and then suspended in PBS. Subsequently, a DNA was introduced into the cell under the condition shown below using GENE PULSER (produced by Bio-Rad Laboratories, USA).
# Namely, to a cuvette having a 0.4 cm gap, added were 8×10^6 cells and 10 μg of plasmid pVgRXR2-hPPARγ obtained in Reference Example 3 and 10 μg of reporter plasmid pGL3-4ERPP-TK neo obtained in Reference Example 4, which was subjected to electroporation at the voltage of 0.25 kV under the capacitance of 960 μF. Subsequently, the cell was transferred into a HAM F12 medium containing 10% Fetal Bovine. Serum and cultured for 24 hours. Then the cell was scraped again and centrifuged, and then suspended in HAM F12 medium containing 10% Fetal Bovine Serum supplemented with 500 μg/ml of GENETICIN (produced by Life Technologies, Inc., USA) and 250 μg/ml of ZEOCIN (produced by Invitrogen, USA). The suspension was diluted to the density of 10^4 cells/ml, and inoculated to a 96-well plate (produced by Corning Costar Corporation, USA), which was cultured in a CO2 gas incubator at 37° C., whereby obtaining a GENETICIN- and ZEOCIN-resistant transformant.
# Subsequently, after the transformant cell line thus obtained was cultured in a 24-well plate (produced by Corning Costar Corporation, USA), selected was a cell line, PPARγ:RXRα:4ERPP/CHO-K1 cell, in which the luciferase was expressed and induced by addition of 10 μM pioglitazone hydrochloride.
# [3] = percent reduction of plasma glucose level vs non-administration group, read-out: hypoglycemic action (%)
# [4] = percent reduction of plasma triglyceride level vs non-administration group, read-out: hypolipidemic action (%)
Compound,EC50 [2] [nM],"inhibition in vivo at 0.005 % [1, 3] [%]","inhibition in vivo at 0.005 % [1, 4] [%]","inhibition in vivo at 0.01 % [1, 3] [%]","inhibition in vivo at 0.01 % [1, 4] [%]"
"COc1ccc(OCc2ccc(OCc3nc(-c4ccccc4)oc3C)cc2)c(CC(=O)O)c1 [Example 24, 2-[5-methoxy-2-[4-[(5-methyl-2-phenyl-4-oxazolyl)methoxy]benzyloxy]phenyl]acetic acid]",160,49,67,,
"Cc1oc(-c2ccccc2)nc1COc1ccc(COc2ccc(Cl)cc2CC(=O)O)cc1 [Example 18, 2-[5-chloro-2-[4-[(5-methyl-2-phenyl-4-oxazolyl)methoxy]benzyloxy]phenyl]acetic acid]",2900,41,34,,
"Cc1oc(-c2ccccc2)nc1COc1cc(COc2ccccc2CC(=O)O)on1 [Example 79, 2-[2-[3-(5-methyl-2-phenyl-4-oxazolylmethoxy)-5-isoxazoly]methoxylphenyl]acetic acid]",9.2,54,96,,
"Cc1oc(-c2ccco2)nc1COc1ccc(COc2ccccc2CC(=O)O)cc1 [Example 50, 2-[2-[4-[[2-(2-furyl)-5-methyl-4-oxazolyl]methoxy]benzyloxy]phenyl]acetic acid]",180,54,77,,
"COc1cc(COc2ccccc2CC(=O)O)ccc1OCc1nc(-c2ccccc2)oc1C [Example 48, 2-[2-[3-methoxy-4-[(2-phenyl-5-methyl-4-oxazolyl)methoxy]benzyloxy]phenyl]acetic acid]",18,53,50,,
"Cc1oc(-c2ccccc2)nc1COc1cccc(COc2cccc(CC(=O)O)c2)c1 [Example 32, 2-[[3-[3-(5-methyl-2-phenyl-4-oxazolyl)methoxy]benzyloxy]phenyl]acetic acid]",77,,,40,53
"Cc1oc(-c2ccccc2)nc1CCc1ccc(COc2ccccc2CC(=O)O)cc1 [Example 97, 2-[2-[4-[2-(5-methyl-2-phenyl-4-oxazolyl)ethyl]benzyloxy]phenyl]acetic acid]",26,34,83,,

# Now from value to compound, other results behind:
EC50 [2] [nM],Compound,"inhibition in vivo at 0.005 % [1, 3] [%]","inhibition in vivo at 0.005 % [1, 4] [%]","inhibition in vivo at 0.01 % [1, 3] [%]","inhibition in vivo at 0.01 % [1, 4] [%]"
610,"Cc1oc(-c2ccccc2)nc1COc1ccc(COc2cccnc2CC(=O)O)cc1 [Example 37, 2-[3-[4-[(5-methyl-2-phenyl-4-oxazolyl)methoxy]benzyloxy]-2-pyridyl]acetic acid]",50,61,,
370,"Cc1oc(-c2ccco2)nc1COc1ccc(COc2ncccc2CC(=O)O)cc1 [Example 92, 2-[2-[4-[[2-(2-furyl)-5-methyl-4-oxazolyl]methoxy]benzyloxy]-3-pyridyl]acetic acid]",58,83,,
7.1,"Cc1oc(-c2ccccc2)nc1COc1ccc(COc2ncccc2CC(=O)O)cn1 [Example 88, 2-[2-[[6-[(5-methyl-2-phenyl-4-oxazolyl)methoxy]-3-pyridyl]methoxy]-3-pyridyl]acetic acid]",47,90,,
1200,"O=C(O)Cc1ccccc1OCc1ccc(OCc2csc(-c3ccccc3)n2)cc1 [Example 51, 2-[2-[4-[(2-phenyl-4-thiazolyl)methoxy]benzyloxy]phenyl]acetic acid]",55,79,,
200,"Cc1ccc(OCc2ccc(OCc3nc(-c4ccccc4)oc3C)cc2)c(CC(=O)O)c1 [Example 15, 2-[5-methyl-2-[4-[(5-methyl-2-phenyl-4-oxazolyl)methoxy]benzyloxy]phenyl]acetic acid]",49,60,,
290,"Cc1oc(-c2ccccc2)nc1COc1ccc(COc2cccc(CC(=O)O)c2)cc1 [Example 1, 2-[3-[4-[(5-methyl-2-phenyl-4-oxazolyl)methoxy]benzyloxy]phenyl]acetic acid]",21,33,,
1.7,"COc1cc(COc2ncccc2CC(=O)O)ccc1OCc1nc(-c2ccccc2)oc1C [Example 91, 2-[2-[3-methoxy-4-[(2-phenyl-5-methyl-4-oxazolyl)methoxy]benzyloxy]-3-pyridyl]acetic acid]",50,67,,
390,"Cc1sc(-c2ccccc2)nc1COc1ccc(COc2ncccc2CC(=O)O)cc1 [Example 93, 2-[2-[4-[(5-methyl-2-phenyl-4-thiazolyl)methoxy]benzyloxy]-3-pyridyl]acetic acid]",45,53,,
230,"Cc1sc(-c2ccccc2)nc1COc1ccc(COc2ccccc2CC(=O)O)cc1 [Example 52, 2-[2-[4-[(5-methyl-2-phenyl-4-thiazolyl)methoxy]benzyloxy]phenyl]acetic acid]",56,61,,
